The record followed here is PubChem BioAssay (NCI).

One may read the TGI as the concentration at which net growth stops. Higher therefore signals less potent growth arrest.

Test systems include DU-145 prostate; HCT-116 colon; HS 578T breast; IGROV1 ovarian; MDA-N; NCI-H522 lung; NCI/ADR-RES ovarian; RXF 393 renal; SW-620 colon; TK-10 renal.
Holding throughout (assay): DTP human tumour cell line panel, 48 h

SMILES strings stand for the structures.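 Where inhibition never reached the appropriate level, the endpoint shown equals the highest concentration tested. Otherwise, values were interpolated linearly from a five-concentration, 48-hour dose response in 96-well plates. TGI: concentration producing complete growth inhibition.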

Turning to `CCOC(=O)C(C)c1nc2cc(N3CCN(C)CC3)c(F)cc2[nH]c1=O` (stereo not drawn), the TGI with DU-145 prostate, in the experiment on HCT-116 colon, in the experiment on HS 578T breast, with IGROV1 ovarian, in the experiment on MDA-N and in the experiment with NCI-H522 lung was over 100 µM throughout. The TGI with NCI/ADR-RES ovarian, in the experiment with RXF 393 renal and in the experiment on SW-620 colon was over 100 µM throughout.
As to `CC(C)(C)OC(=O)NCC(=O)N1CCCN(C(=O)CNC(=O)OC(C)(C)C)CC1`, the TGI in the experiment on DU-145 prostate, in the experiment with HCT-116 colon, in the experiment with HS 578T breast, in the experiment with IGROV1 ovarian, in the experiment on MDA-N and with NCI-H522 lung was over 100 µM throughout. The TGI in the experiment with NCI/ADR-RES ovarian, in the experiment on RXF 393 renal, in the experiment on SW-620 colon and in the experiment with TK-10 renal was over 100 µM throughout.
`Nc1c(S(=O)(=O)O)cc(Nc2cccc(S(=O)(=O)/C=C/S(=O)(=O)O)c2)c2c1C(=O)c1ccccc1C2=O`: the TGI in the experiment on DU-145 prostate, with HCT-116 colon, in the experiment with HS 578T breast, with IGROV1 ovarian, with MDA-N and with NCI-H522 lung was over 100 µM in each case. Moreover, the TGI in the experiment on NCI/ADR-RES ovarian, with RXF 393 renal, in the experiment with SW-620 colon and in the experiment on TK-10 renal was over 100 µM in each case.
On to `COc1ccc(/C=N/n2c(Cc3ccc(Cl)cc3)n[nH]c2=O)c(OC)c1`, for which the TGI with DU-145 prostate was over 100 µM; in the experiment on HCT-116 colon, over 100 µM; in the experiment on HS 578T breast, 37.3 µM; in the experiment on IGROV1 ovarian it was over 100 µM; with MDA-N, over 100 µM; in the experiment with NCI-H522 lung it was 37.4 µM. Besides, the total growth inhibition concentration (TGI) in the experiment with NCI/ADR-RES ovarian is 45.2 µM; in the experiment on RXF 393 renal, 41.7 µM; in the experiment on SW-620 colon, over 100 µM; in the experiment with TK-10 renal, 52.2 µM.
For `CCOc1cc(C2SCC(=O)N2c2nc3cc4sc(N5C(=O)CSC5c5ccc(O)c(OCC)c5)nc4cc3s2)ccc1O` (stereo not drawn), the TGI in the experiment with DU-145 prostate, with HCT-116 colon, with HS 578T breast, with IGROV1 ovarian, with MDA-N and in the experiment on NCI-H522 lung was over 100 µM throughout. For the same compound, the TGI with NCI/ADR-RES ovarian, in the experiment on RXF 393 renal, in the experiment on SW-620 colon and with TK-10 renal was over 100 µM throughout.
With `O=C1C(N=Nc2ccc(-c3nc4ccccc4[nH]3)cc2)NC(=S)N1c1ccccc1` (stereo not drawn), the TGI in the experiment on DU-145 prostate, in the experiment with HCT-116 colon, in the experiment on HS 578T breast, in the experiment on IGROV1 ovarian, with MDA-N and in the experiment with NCI-H522 lung was over 100 µM throughout. Moreover, the TGI in the experiment on NCI/ADR-RES ovarian was over 100 µM; with RXF 393 renal it was 47.3 µM; in the experiment with SW-620 colon, 80.1 µM; with TK-10 renal it was over 100 µM.
With `CC(C)(C)c1cc(C2COC(=O)COCC(=O)OCCOCCOCCO2)cc(C(C)(C)C)c1O` (stereo not drawn), the TGI in the experiment on DU-145 prostate is 41.7 µM; with HCT-116 colon, over 100 µM; in the experiment on HS 578T breast it was 45.8 µM; in the experiment on IGROV1 ovarian, over 100 µM; with MDA-N, 38.5 µM; in the experiment with NCI-H522 lung, over 100 µM. The TGI in the experiment with NCI/ADR-RES ovarian is over 100 µM; with RXF 393 renal it was 41.3 µM; in the experiment on SW-620 colon, over 100 µM; with TK-10 renal, 43.7 µM.
For the compound `O=C(C#Cc1cn(C2CC(O)C(CO)O2)c(=O)[nH]c1=O)c1ccccc1` (stereo not drawn), the TGI in the experiment on DU-145 prostate was over 100 µM; in the experiment on HCT-116 colon, over 100 µM; with HS 578T breast it was over 100 µM; with IGROV1 ovarian it was over 100 µM; in the experiment on MDA-N, over 100 µM; in the experiment with NCI-H522 lung, 17.7 µM. The TGI was over 100 µM in the experiment on NCI/ADR-RES ovarian, 52.7 µM in the experiment on RXF 393 renal, 50.4 µM with SW-620 colon and over 100 µM in the experiment on TK-10 renal.
For `CN(c1ccccc1Cl)S(=O)(=O)c1ccccc1[N+](=O)[O-]`, the TGI in the experiment on DU-145 prostate, with HCT-116 colon, with HS 578T breast, with IGROV1 ovarian, with MDA-N and in the experiment on NCI-H522 lung was over 100 µM throughout. Further, the TGI in the experiment with NCI/ADR-RES ovarian is 95.9 µM; with RXF 393 renal, 90 µM; in the experiment with SW-620 colon it was over 100 µM; in the experiment with TK-10 renal, over 100 µM.
Take `c1ccc(C2=C(c3ccccc3)P(c3ccccc3)C2)cc1` (stereo not drawn): the TGI with DU-145 prostate, with HCT-116 colon, with HS 578T breast, in the experiment with IGROV1 ovarian, with MDA-N and with NCI-H522 lung was over 100 µM throughout. Besides, the TGI in the experiment on NCI/ADR-RES ovarian, in the experiment with RXF 393 renal, in the experiment with SW-620 colon and in the experiment on TK-10 renal was over 100 µM throughout.
`CCOC(=O)N(C)C1(c2ccccc2)CCN(CCCC(=O)c2ccc(F)cc2)CC1`: the TGI in the experiment with DU-145 prostate was over 100 µM; with HCT-116 colon, over 100 µM; in the experiment with HS 578T breast, over 100 µM; with IGROV1 ovarian it was over 100 µM; with MDA-N, 41.5 µM; with NCI-H522 lung, over 100 µM. The TGI was over 100 µM with NCI/ADR-RES ovarian, over 100 µM in the experiment with RXF 393 renal, 9.3 µM with SW-620 colon and over 100 µM with TK-10 renal.
Consider `O=C(c1ccccc1)N1C(=S)N(c2ccc([N+](=O)[O-])cc2)C(=Nc2ccccc2)C1=Nc1ccccc1`, for which the total growth inhibition concentration (TGI) in the experiment on DU-145 prostate, in the experiment on HS 578T breast, in the experiment on IGROV1 ovarian, with MDA-N, in the experiment with NCI-H522 lung and with NCI/ADR-RES ovarian was over 100 µM each time. In addition, the TGI in the experiment on RXF 393 renal, in the experiment with SW-620 colon and in the experiment with TK-10 renal was over 100 µM throughout.
For `CN(C)CCn1c(=O)c2ccc3c4c(nn3CCN(C)C)c3ccccc3n(c1=O)c24`, the TGI was 3.54 µM with DU-145 prostate; 2.22 µM in the experiment with HCT-116 colon; 12.5 µM in the experiment with HS 578T breast; 1.92 µM in the experiment on IGROV1 ovarian; 0.97 µM in the experiment with MDA-N; 0.329 µM in the experiment with NCI-H522 lung. In addition, the TGI came to 2.58 µM in the experiment on NCI/ADR-RES ovarian, 1.26 µM in the experiment with RXF 393 renal, 32 µM in the experiment on SW-620 colon and 2.35 µM with TK-10 renal.
